Source: patent US20250195491A1 (AEVIS BIO, INC., priority 2022, published 2025)

Columns and labels:
SALL4 = SALL4 degradation by immunoblotting in Tera-1 cells; assay type: cell-based, human; conditions: 0.000128-10 μM, 4 hours, immunoblot, FIG. 4
Source text: It has been reported that a cereblon (CRBN)-binding therapeutic such as a thalidomide-based compound can cause severe congenital abnormalities such as forelimb shortening or brachydactyly, which are closely associated with the decomposition of SALL4.
To this end, the Tera-1 cell line (HTB-105), which is a human embryonic carcinoma cell line, was purchased from the American Type Culture Collection (ATCC, Manassas, VA, USA) and used, and then cultured using a DMEM medium (Corning, MD, USA) supplemented with 10% fetal bovine serum (Corning, MD, USA), 100 U/mL of penicillin (Corning, MD, USA), and 100 100 μg/mL streptomycin (Corning, MD, USA) at 37° C. in a 5% CO2 incubator.
The cells were disrupted by adding a RIPA buffer containing a protease inhibitor cocktail (Thermo Fisher Scientific), and centrifuged at 14,000 rpm for 15 minutes at 4° C. to obtain a cell extract. Equal amounts of the cell extract were loaded, and proteins were separated by SDS-PAGE and then transferred to a PVDF membrane. The protein-transferred membrane was blocked using skim milk, incubated with a primary antibody for 3 hours at room temperature, and then incubated with an HRP-conjugated secondary antibody for 1 hour at room temperature. The resulting product was washed with TBS-T three times between steps. […]

BV-2 cells = assay: Nitrite content in culture medium of LPS-stimulated BV-2 cells (Griess); assay type: cell-based, mouse; conditions: BV-2, 30, 10, or 3.33 μM, LPS 1 μg/mL 24 hours, FIG. 6B
Procedure: To further confirm the oxidative stress suppression effect, the content of nitrite released due to an inflammatory response and the expression levels of iNOS, which is an enzyme that produces nitric oxide, and COX-2, which is cyclooxygenase-2, were determined in mouse microglial cells (BV-2, ATCC, Manassas, VA, USA).
(§1) To determine the content of nitrite and the protein expression levels of iNOS and COX-2, BV-2 was seeded in a 12-well plate (Corning, MD, USA) at 1.5×10^5 cells/well, and cultured using a DMEM medium (Corning, MD, USA) containing 10% fetal bovine serum (Corning, MD, USA) and 100 U/mL of penicillin/streptomycin (Corning, MD, USA) at 37° C. in a 5% CO2 incubator for one day for stabilization. […] 1 μg/mL of LPS (Sigma, USA) was added to all experimental groups excluding the non-inflammation-induced group and allowed to react at 37° C. in a 5% CO2 incubator for 24 hours.
The cell culture solution was collected to measure the content of nitrite, and centrifuged at 3,000 rpm for 5 minutes to obtain a supernatant. The concentration of nitrite in the cell culture was measured using a microplate reader (NEO2MALPHAB Synergy Neo-2, BioTek, CA, US) according to the manual of the Griess Reagent System (#G2930, Promega, WI, USA).

TNF-α, IL-1β, and IL-6 = assay: Pro-inflammatory cytokine mRNA (RT-PCR) in LPS-stimulated BV-2 cells; assay type: cell-based, mouse; conditions: BV-2, 30, 10, or 3.33 μM, LPS 1 μg/mL 6 hours, FIG. 5B
Procedure: as §1, with “BV-2” for “To determine the content of nitrite and the protein expression levels of iNOS and COX-2, BV-2”, “plated” for “seeded”, “6-well” for “12-well”, “5×10^5” for “1.5×10^5”, “6” for “24”
The drug-treated BV-2 underwent RNA prep according to kit manual using an RNA prep kit (Monarch Total RNA Miniprep kit, NEB, UK), and the concentration was measured using a nanophotometer (NP80, Implen, Germany). According to the concentration of each RNA sample, 1 μg of RNA was added and cDNA was synthesized according to the manual of the cDNA synthesis kit (LunaScript RT SuperMix kit, NEB, UK).
The expression level of each cytokine in the synthesized cDNA was analyzed and compared using Real-Time PCR (StepOne™Bioscience, USA) equipment. […] The Cr value for the gene of each sample obtained through real-time PCR was normalized by the value of the internal control gene (GAPDH) of each sample, the expression level was estimated inversely by 2ΔΔCT calculation, and the resulting value of each group was quantified and expressed as a percentage relative to the LPS-only treatment group.

`Nc1cccc2c1C(=S)N(C1CCC(=O)NC1=O)C2=O` (stereo not drawn) [3-MP, 3-thiopomalidomide] was tested, and the “decomposition of SALL4” value (SALL4) was “less decomposition of SALL4 than pomalidomide”, the “amount of residual nitrite released by LPS” value (BV-2 cells) was “effectively reduced the amount of the residual nitrite released by LPS, compared to pomalidomide” and the “pro-inflammatory cytokine inhibition effect (mRNA)” value (TNF-α, IL-1β, and IL-6) was “higher pro-inflammatory cytokine inhibition effect than pomalidomide”.
